Read-outs that look alike come from different tables or passages of the source.
What was measured:
clinical = conditions: human, plasma, po, absolute bioavailability, oral administration
[1] = race (Caucasian vs African American) or BMI
[2] = IV, cited from earlier work
[3] = injectable formulations (IV or IM or SC); cited from earlier work

SMILES: Cl.Oc1ccc2c3c1OC1[C@@H](O)CC[C@@]4(O)[C@@H](C2)N(CC2CCC2)CC[C@]314 (stereo partly drawn) [nalbuphine, 17-(cyclobutylmethyl)-4,5α-epoxymorphinian-3, 6α, 14-triol, hydrochloride]
- bioavailability (clinical; non-elderly subjects): 11%
- bioavailability (clinical; subjects aged older than 65 years): ~44%
- effect on CL/F due to race or BMI [1]: no observable effect
- volume of distribution ([2]; across the age groups): comparable across the age groups
- elimination half-life (T½) ([2]; children between 1.5 and 8.5 yrs): 0.9 h
- elimination half-life (T½) ([2]; elderly subjects 65-90 yrs): 2.3 h
- elimination half-life (T½) ([2]; young adults 23-32 yr of age): 1.96 h
- half-life [3]: 2 to 3 h

Reference: US20260021090A1, “METHODS OF ADM[…]” (Trevi Therapeutics, Inc., priority 2022, published 2026)
